# Measurements: patent US10206901B2, “Method and composition for acute treatment of seizures” (JC Pharma, Inc., priority 2016, dated 2019)
# What was measured:
# convulsive seizures = test: Acute intranasal treatment of convulsive seizures in pediatric human subjects; assay type: in vivo; conditions: human subjects weighing over 60 lbs
# Method: Three male human pediatric subjects, each under the age of 16, undergoing convulsive seizures, were administered from two to four 0.1 ml doses (each dose 5 mg delta-9-tetrahydrocannabinol with 8% by volume linalool) of the product disclosed herein. Administration was achieved via a nasal spray administered within one or more of the subject's nostrils using the delivery device disclosed herein by a caregiver during the occurrence of the convulsive seizure. In subject one, administered 3 doses, a visible state of cessation of the convulsions of the seizure was achieved by 21 seconds from first dose administration. In subject two, administered 4 doses, a visible state of cessation of the convulsions of the seizure was achieved by 36 seconds from first dose administration. In subject three, administered 2 doses, a visible state of cessation of the convulsions of the seizure was achieved by 27 seconds from first dose administration.
# Thus, acute treatment of the convulsive seizure using an average dose of 3×0.1 ml of the 5 mg delta-9-tetrahydrocannabinol with 8% by volume linalool achieved cessation of the convulsion symptom of the convulsive seizure within a mean time of 28 seconds from first dose administration.
# rat model of epilepsy = conditions: intraperitoneal injection, cited from earlier work
smiles,measurement,setting,value
"CCCCCc1cc(O)c2c(c1)OC(C)(C)[C@@H]1CCC(C)=C[C@@H]21 [THC, delta-9-tetrahydrocannabinol]",lowest administered THC dose per body weight at which seizures in progress were stopped,convulsive seizures,around 0.37 mg/kg
same,lowest total administered THC dose at which seizures in progress were treated and stopped,convulsive seizures,10.0 mg
same,seizure prevention,rat model of epilepsy; 30.0 mg/kg,can prevent seizures from occurring
same,ED50 anticonvulsant effect (seizure prevention),rat model of epilepsy,15.0 mg/kg
same,dose at which anticonvulsant effect starts,rat model of epilepsy,5.0 mg/kg
